Experimental data: patent US12448383B2, “Compounds and methods for treatment of viral infections” (priority 2022, dated 2025)
pEC50: −log10 of the molar value.

Legend:
[1] = system: Caco-2 cells (clone C2BBe1); experiment: CACO-2 permeability; type: in vitro ADME; parameters: unit not given here; details: for DM Caco2 A to B: apical to basolateral, donor pH 6.5, receiver pH 7.4; for DM Caco2 B to A: basolateral to apical
Procedure: Pre-plated Caco-2 cells (clone C2BBel) were obtained from Sigma-Aldrich, Inc. (Atlanta, GA). Cell monolayers were grown to confluence on collagen-coated, microporous, polycarbonate membranes in 24-well transwell plates for 21 days. The permeability assay buffer in donor wells was Hanks' balanced salt solution (HBSS) containing 10 mM HEPES and 15 mM glucose at a pH of 6.5 containing 200 μM BNPP. The receiver wells used HBSS buffer containing 10 mM HEPES and 15 mM glucose at a pH of 7.4 and supplemented with 1°% BSA. After an initial equilibration with transport buffer, TEER values were read to test membrane integrity. The experiment was started by the addition of buffers containing test compounds, 200 μl and 1000 μl in the apical and basolateral chamber, respectively. At 0- and 2-hour post dose, 10 μL was sampled from donor compartment and was immediately diluted in 190 μL of 20% methanol. At 1 and 2 hours post dose, 100 μl of solution was taken from the receiver compartments and was immediately diluted in 100 μl of 20% methanol. Removed buffer was replaced with fresh buffer and a correction was applied to all calculations for the removed material. Each compound was tested in 2 separate replicate wells for each condition. All samples were then extracted with 400 μl 100% acetonitrile with internal standard to precipitate protein. Cells were dosed on the apical or basolateral side to determine forward (A to B) and reverse (B to A) permeability. To test for non-specific binding and compound instability, the total amount of drug was quantitated at the end of the experiment and compared to the material present in the original dosing solution as a percent recovery. […] Samples were analyzed by LC-MS/MS.

[2] = system: SARS Coronavirus 2 recombinant with NanoLuc (SARS-CoV2-NLuc) in A549-hACE2 cells; experiment: organism not typed; type: cell-based; details: 48 h; read-out: SARS-CoV2 EC50
[3] = system: Respiratory syncytial virus recombinant with luciferase (RSV-Luc5) in Normal Human Bronchial Epithelial (NHBE) cells; experiment: microbe, parasite or virus in culture; type: cell-based; details: 72 h, read-out: RSV NHBE EC50
[4] = CC50 MT4 cytotoxicity (Cell-Titer Glo); type: cell-based; details: human
Procedure: Cytotoxicity of the compounds was determined in uninfected cells using the cell viability reagent in a similar fashion as described before for other cell types (Cihlar et al., Antimicrob Agents Chemother. 2008, 52(2):655-65). HEp-2 (1.5×10^3 cells/well) and MT-4 (2×10^3 cells/well) cells were plated in 384-well plates and incubated with the appropriate medium containing 3-fold serially diluted compound ranging from 15 nM to 100,000 nM. Cells were cultured for 4-5 days at 37° C. Following the incubation, the cells were allowed to equilibrate to 25° C., and cell viability was determined by adding Cell-Titer Glo viability reagent. The mixture was incubated for 10 min, and the luminescence signal was quantified using an Envision plate reader. Untreated cell and cells treated at 2 μM puromycin (Sigma, St. Louis, MO) serve as 100% and 0% cell viability control, respectively. The percent of cell viability was calculated for each tested compound concentration relative to the 0% and 100% controls and the CCso value was determined by non-linear regression as a compound concentration reducing the cell viability by 50%.

[5] = GI S9 stability - no PMSF; type: in vitro ADME; parameters: GIS9-HUMAN-NoPMSF T1/2: unit: min; details: human intestinal S9, PMSF-free; for half-life at 2 µM: pH 7.4, read-out: GIS9-HUMAN-NoPMSF T1/2
Procedure: Duplicate aliquots of test compound or positive control substrate (GS-7340) were added to S9 stock diluted with 100 mM phosphate buffered saline, pH 7.4, to obtain a protein concentration of 1.0 mg/mL. The S9 metabolic reactions were initiated by the addition of the substrates to the S9 reaction mixture to a final concentration of 2 μM. At 0, 10, 20, 30, 60 and 120 min, […] aliquots of the reaction mixture were transferred to plates containing […] of IS/Q solution. After quenching, the plates were centrifuged at 3000 g for 30 minutes, and 150 μL aliquots of each supernatant were diluted with 150 μL water. Aliquots ([…]) of the diluted supernatant were analyzed on a Thermo Q-Exactive mass spectrometer as described below. GI S9 Stability—No phenylmethylsulfonyl fluoride (PMSF): Similar to the procedure described above, test compounds were incubated at 2 μM with 1 mg/mL PMSF-free Intestinal S9 fractions. Samples are removed at 6 time points over the course of a 120 min experiment and the parent compound disappreance and reference compound A formation is determined by mass spectrometry.
Example K: Liquid Chromatography/Mass Spectroscopy Methods for S9 and Plasma Stability
Quantification of test compounds, Reference Compound A (S9 stability assay nucleoside metabolite), and controls was performed by analyte/internal standard peak area ratio (PAR) values measured on a Thermo Q-Exactive mass spectrometer coupled to a Dionex UltiMate 3000 HPLC with a Leap Technologies HTC PAL autosampler. The column used for analysis of test compounds and Reference Compound A was a Waters Acquity BEH C18 ([…] particle size, 2.1′50 mm). The column used for control (GS-7340) was a Thermo Hypersil GOLD ([…] particle size, 2.1′50 mm). Mobile phase A consisted of 0.1% (v/v) formic acid in water. Mobile phase B consisted of 0.1% (v/v) formic acid in acetonitrile. Elution of analytes was achieved by a series of linear gradients of acetonitrile in water containing 0.1°(v/v) formic acid. The mass spectrometer was calibrated on a weekly basis and mass tolerance of 5 ppm was used.

Plasma stability = type: in vitro ADME; parameters: unit not given here; details: 37° C., 2 μM substrate
Procedure: At 0.05, 0.5, 1, 2, 3 and 4 hr, […] aliquots of the reaction mixture were transferred to plates containing […] of IS/Q quenching solution. After quenching, the plates were centrifuged at 3000 g for 30 minutes, and 150 μL supernatant was diluted with 150 μL water. Aliquots ([…]) of the diluted supernatant were analyzed on a Thermo Q-Exactive mass spectrometer as described below.
Mobile phase A consisted of 0.1% (v/v) formic acid in water. Mobile phase B consisted of 0.1% (v/v) formic acid in acetonitrile. Elution of analytes was achieved by a series of linear gradients of acetonitrile in water containing 0.1°(v/v) formic acid. The mass spectrometer was calibrated on a weekly basis and mass tolerance of 5 ppm was used.

Row | Structure (SMILES) | DM Caco2 A to B [1] | DM Caco2 B to A [1] | pEC50 [2] | pEC50 [3] | CC50 [4] | half-life at 2 µM [5] | STA Human Plasma 37 (Plasma stability) | GIS9-HUMAN-NoPMSF T1/2 [5]
1 | CC(=O)OC[C@H]1O[C@@](C#N)(c2ccc3c(N)ncnn23)[C@H](OC(C)=O)[C@@H]1OC(C)=O [3rd Reference Ester Compound] | 5.07 | 8.91 |  |  |  |  |  | 
2 | N#C[C@@]1(c2ccc3c(N)ncnn23)O[C@H](CO)[C@@H](O)[C@H]1O [Reference Compound A, (2R,3R,4S,5R)-2-(4-aminopyrrolo[2,1-f][1,2,4]triazin-7-yl)-3,4-dihydroxy-5-(hydroxymethyl)tetrahydrofuran-2-carbonitrile, reference compound] | 0.12 | 1.52 |  |  |  |  |  | 
3 | C=CCOC(=O)OC[C@H]1O[C@@](C#N)(c2ccc3c(N)ncnn23)[C@H](O)[C@@H]1O [Compound 64, Ally (((2R,3S,4R,5R)-5-(4-aminopyrrolo[2,1-f][1,2,4]triazin-7-yl)-5-cyano-3,4-dihydroxytetrahydrofuran-2-yl)methyl) carbonate] | 0.39 | 4.6 | 5.38 | 5.58 | > 50 µM | 0.993 min | 3 | 
4 | CC(C)OC(=O)OC[C@H]1O[C@@](C#N)(c2ccc3c(NC(=O)OC(C)(C)C)ncnn23)[C@H](OC(=O)OC(C)C)[C@@H]1OC(=O)OC(C)C [Compound 80, tert-butyl (7-((2R,3R,4R,5R)-2-cyano-3,4-bis((isopropoxycarbonyl)oxy)-5-(((isopropoxycarbonyl)oxy)methyl)tetrahydrofuran-2-yl)pyrrolo[2,1-f][1,2,4]triazin-4-yl)carbamate] | 1.35 | 0.95 | < 4.30 | 5.69 | > 50 µM | 0.847 min | 604.23 | 
5 | COC(=O)OC[C@H]1O[C@@](C#N)(c2ccc3c(N)ncnn23)[C@@H]2OC(=O)O[C@@H]21 [Compound 127, ((3aR4R,6R,6aR)-6-(4-aminopyrrolo[2,1-f][1,2,4]triazin-7-yl)-6-cyano-2-oxotetrahydrofuro[3,4-d][1,3]dioxol-4-yl)methyl methyl carbonate] |  |  | 4.86 | 5.30 | > 50 µM | 0.957 min | 12.071 | 
6 | CC(C)C(C)(C)OC(=O)OC[C@H]1O[C@@](C#N)(c2ccc3c(N)ncnn23)[C@H](O)[C@@H]1O [Compound 68, ((2R,3S,4R,5R)-5-(4-aminopyrrolo[2,1-f][1,2,4]triazin-7-yl)-5-cyano-3,4-dihydroxytetrahydrofuran-2-yl)methyl (2,3-dimethylbutan-2-yl) carbonate] | 0.98 | 7.09 | 5.50 | 5.89 | > 50 µM | 46.1 min | 266.43 | 
7 | CC1=CCC(OC(=O)OC[C@H]2O[C@@](C#N)(c3ccc4c(N)ncnn34)[C@H](O)[C@@H]2O)(C(C)C)CC1 (stereo partly drawn) [Compound 74, ((2R,3S,4R,5R)-5-(4-aminopyrrolo[2,1-f][1,2,4]triazin-7-yl)-5-cyano-3,4-dihydroxytetrahydrofuran-2-yl)methyl (1-isopropyl-4-methylcyclohex-3-en-1-yl) carbonate] | 3.25 | 9.88 | 5.62 | 6.02 | > 50 µM | 30.3 min | 205.11 | 
8 | CC1(OC(=O)OC[C@H]2O[C@@](C#N)(c3ccc4c(N)ncnn34)[C@H](O)[C@@H]2O)CCCCCCC1 [Compound 57, ((2R,3S,4R,5R)-5-(4-aminopyrrolo[2,1-f][1,2,4]triazin-7-yl)-5-cyano-3,4-dihydroxytetrahydrofuran-2-yl)methyl (1-methylcyclooctyl) carbonate] |  |  | 5.64 | 5.61 | > 50 µM |  | 317.5 | 
9 | CCOC(=O)OC[C@H]1O[C@@](C#N)(c2ccc3c(NC(=O)OCc4ccccc4)ncnn23)[C@H](O)[C@@H]1O [Compound 131, benzyl (7-((2R,3R,4S,5R)-2-cyano-5-(((ethoxycarbonyl)oxy)methyl)-3,4-dihydroxytetrahydrofuran-2-yl)pyrrolo[2,1-f][1,2,4]triazin-4-yl)carbamate] | 2.01 | 15.52 | 5.08 | 5.32 | > 50 µM | 2.64 min | 150.92 | 
10 | CC(C)(OC(=O)OC[C@H]1O[C@@](C#N)(c2ccc3c(N)ncnn23)[C@H](O)[C@@H]1O)c1cccnc1 [Compound 99, [(2R,3S,4R,5R)-5-(4-aminopyrrolo[2,1-f][1,2,4]triazin-7-yl)-5-cyano-3,4-dihydroxy-tetrahydrofuran-2-yl]methyl [1-methyl-1-(3-pyridyl)ethyl] carbonate] | 0.11 | 2.47 |  | 5.50 |  | 96.6 min | 173.49 | 
11 | CC(C)(OC(=O)OC[C@H]1O[C@@](C#N)(c2ccc3c(N)ncnn23)[C@H](O)[C@@H]1O)c1ccccn1 [Compound 98, [(2R,3S,4R,5R)-5-(4-aminopyrrolo[2,1-f][1,2,4]triazin-7-yl)-5-cyano-3,4-dihydroxy-tetrahydrofuran-2-yl]methyl [1-methyl-1-(2-pyridyl)ethyl] carbonate] | 0.02 | 5.65 |  | 5.05 |  |  | 884.09 | 789
12 | C=CCCC(=O)O[C@H]1[C@@H](OC(=O)CCC=C)[C@](C#N)(c2ccc3c(N)ncnn23)O[C@@H]1COC(=O)OC(C)C [Compound 134, (2R,3R,4R,5R)-2-(4-aminopyrrolo[2,1-f][1,2,4]triazin-7-yl)-2-cyano-5-(((isopropoxycarbonyl)oxy)methyl)tetrahydrofuran-3,4-diyl bis(pent-4-enoate)] |  |  | 5.29 | 5.85 | > 50 µM |  | 65.405 | 
